Assay results published in patent US6965113B2, “Fluorescence intensity multiple distributions analysis: concurrent determination of diffusion times and molecular brightness” (Evotec AG, priority 2000, dated 2005).
Where two headings read alike, the source gives them in different places. Square brackets hold non-standard residues; d marks the D form. Peptide text beside a SMILES is read from it. * marks the point of attachment. X1 = CC[N+]1=C(C=CC=CC=C2N(CCCCCC(=O)*)c3ccc(S(=O)(=O)O)cc3C2(C)C)C(C)(C)c2cc(S(=O)(=O)[O-])ccc21; pY = N[C@@H](Cc1ccc(OP(=O)(O)O)cc1)C(=O)O

How the values were obtained:
SH2 domain of Grb2 = molecular target: T1, SH2 domain of Grb2 (Homo sapiens, UniProt P62993); experiment: Experiment 1: titration of SH2 against constant 0.4 nM pTyr-Val-Asn-Val-Lys(Cy5), confocal fluorescence fluctuation measurement (FIMDA, FCS, FIDA), hyperbolic fit of fraction bound; conditions: 0.4 nM conjugate, same buffer, T=20° C., read-out: binding constant KD for the SH2-phosphopeptide interaction
T1 construct: as a model system, the bare SH2 domain (14.3 kDa) has been chosen; made in house
T1 sequence (P62993 60-152 limits assumed): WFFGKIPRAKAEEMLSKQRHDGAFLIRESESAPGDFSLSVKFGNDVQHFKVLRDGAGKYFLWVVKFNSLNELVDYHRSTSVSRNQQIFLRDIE
Excerpt: The central optical part of the present FIMDA experiment is a confocal microscope as it is used in fluorescence correlation spectroscopy (Koppel et al., Biophys. J. 16: 1315-1329, 1976: Rigler et al., Eur. Biophys. J. 22: 169-175, 1993). For the excitation of fluorescence, a beam from a continuous wave laser is attenuated to ˜800 μW by neutral density filters, passes a beam expander, and is directed to the microscope objective (UApo/340, 40x, N.A. 1.15, Olympus Optical Co. Ltd., Tokyo, Japan) by a dichroic mirror. Fluorescence is collected by the said objective through the dichroic mirror, a spectral band-pass filter, and is focused to a confocal pinhole, which serves to reject the out-of-focus light. The light, which passes the pinhole, is detected by a silicon photon counting module (SPCM-AQ-131, EG&G Optoelectronics, Vaudreuil, Canada). […]
A series of simultaneously measured or simulated distributions is globally fitted using a Marquardt algorithm. […] Theoretical distributions are calculated using exactly the same algorithm as in FIDA, except that each species has an individual apparent concentration and an apparent brightness at each time window, calculated according to Eqs. […]

[1] = molecular target: T2, SH2-domain of the adapter protein Grb2 (Homo sapiens, UniProt P62993); experiment: Experiment 2: titration of SH2 against constant 0.8 nM pTyr-Val-Asn-Val-Lys(Cy5), FCS, FIDA and FIMDA data collected simultaneously; assay type: binding; conditions: 0.8 nM conjugate, T=20° C.
T2 construct: as a model system, the bare SH2 domain (14.3 kDa) has been chosen; made in house
T2 sequence (P62993 60-152 limits assumed): as above
Protocol: Since the diffusion time of the dye is […] (compared to 40 μs) it spends only a short time in the confocal volume and its apparent brightness decreases. From this information the diffusion time can be calculated from a global fit.
The viability of the present invention was tested by measurements characterizing a ligand-protein interaction. The minimal peptide sequence pTyr-Val-Asn (originating from tyrosine kinase growth factor receptors) binds to the SH2-domain of the adapter protein Grb2. The conjugate pTyr-Val-Asn-Val-Lys(Cy5) was synthesized as binding partner for SH2. All measurements were performed under identical conditions (e.g. same buffer: sterile filter water, 50 mM Na-phosphate buffer pH 7.8, 50 mM NaCl and 0.05% Pluronic; T=20° C.). To obtain the KD value for the ligand protein interaction a titration experiment was carried out. The pTyr-Val-Asn-Val-Lys(Cy5) concentration was kept constant at 0.8 nM, while SH2 was subject to titration (0.01, 0.03, 0.1, 0.3, 1, 3, 10, 30, 100, and 130 μM). Each sample was measured 30 times keeping the acquisition time at 30 seconds per measurement. FCS (prior art), FIDA (prior art) and FIMDA (present invention) data were collected simultaneously in order to compare all three methods. It becomes clear that FIMDA is able to resolve both, the specific brightness and the diffusion time of both species (ligand and complex). Therefore, FIMDA is a more versatile tool than FCS or FIDA and will save assay development time. Comparing the standard deviations of all methods in determining brightness and diffusion time FIMDA is better or at least as good as FCS or FIDA.

Q: With `CC[N+]1=C(C=CC=CC=C2N(CCCCCC(=O)NCCCC[C@H](NC(=O)[C@@H](NC(=O)[C@H](CC(N)=O)NC(=O)[C@@H](NC(=O)[C@@H](N)Cc3ccc(OP(=O)(O)O)cc3)C(C)C)C(C)C)C(=O)O)c3ccc(S(=O)(=O)O)cc3C2(C)C)C(C)(C)c2cc(S(=O)(=O)[O-])ccc21` [pTyr-Val-Asn-Val-Lys(Cy5)] (H-[pY]VNVK(X1)-OH; N-terminus and C-terminus assumed) as the compound, how does the Kd (SH2 domain of Grb2; FCS) read?
A: The Kd was 2.16 ± 0.19 µM.

Q: And the Kd (SH2 domain of Grb2; FIDA)?
A: The Kd was 1.6 ± 0.19 µM.

Q: And the Kd ([1]; FCS, same buffer)?
A: The Kd was 2.26 ± 0.28 µM.

Q: And the Kd ([1]; FIDA, same buffer)?
A: The Kd was 1.7 ± 0.29 µM.

Q: And the Kd ([1]; FIMDA, 50 mM Na-phosphate buffer pH 7.8, 50 mM NaCl, 0.05% Pluronic)?
A: The Kd was 1.68 ± 0.27 µM.
